Data reported in patent US8877748B2, “Heterocyclic fused anthraquinone derivatives, manufacturing method and pharmaceutical composition using thereof” (National Defense Medical Center, priority 2012, dated 2014).

Columns and labels:
[1] = test system: PC-3 prostate cancer cell line; assay: SRB assay cell viability, PC-3 prostate cancer cell line; type: cell-based, human; details: Homo sapiens, PC-3 prostate cancer cell line, Table II prints no unit, μM printed, read-out: SRB assay: 50% inhibition of cancer cell proliferation of sample concentration (IC50) of PC-3 prostate cancer cell line
HL-60, TB = assay: NCI one-dose screening, leukemia HL-60, TB; type: cell-based, human; details: 10 μM
MOLT-4 = assay: NCI one-dose screening, leukemia MOLT-4; type: cell-based, human; details: 10 μM
SR = assay: NCI one-dose screening, leukemia SR; type: cell-based, human; details: 10 μM
PRMI-8226 cell line = assay: NCI one-dose screening, leukemia PRMI-8226; type: cell-based, human; details: 10 μM
K562cell line = assay: NCI one-dose screening, leukemia K562; type: cell-based, human; details: 10 μM
EKVX = assay: NCI one-dose screening, non-small cell lung cancer EKVX; type: cell-based, human; details: 10 μM
HOP-62 = assay: NCI one-dose screening, non-small cell lung cancer HOP-62; type: cell-based, human; details: 10 μM
HOP-92 = assay: NCI one-dose screening, non-small cell lung cancer HOP-92; type: cell-based, human; details: 10 μM
NCI-H226 = assay: NCI one-dose screening, non-small cell lung cancer NCI-H226; type: cell-based, human; details: 10 μM
NCI-H23 = assay: NCI one-dose screening, non-small cell lung cancer NCI-H23; type: cell-based, human; details: 10 μM
NCI-H460 = assay: NCI one-dose screening, non-small cell lung cancer NCI-H460; type: cell-based, human; details: 10 μM
NCI-H522 = assay: NCI one-dose screening, non-small cell lung cancer NCI-H522; type: cell-based, human; details: 10 μM
A549/ATCC = assay: NCI one-dose screening, non-small cell lung cancer A549/ATCC; type: cell-based, human; details: 10 μM
COLO 205 = assay: NCI one-dose screening, colon cancer COLO 205; type: cell-based, human; details: 10 μM
HCC-2998 = assay: NCI one-dose screening, colon cancer HCC-2998; type: cell-based, human; details: 10 μM
HCT-116 = assay: NCI one-dose screening, colon cancer HCT-116; type: cell-based, human; details: 10 μM
HCT-15 = assay: NCI one-dose screening, colon cancer HCT-15; type: cell-based, human; details: 10 μM
KM12 = assay: NCI one-dose screening, colon cancer KM12; type: cell-based, human; details: 10 μM
HT29 = assay: NCI one-dose screening, colon cancer HT29; type: cell-based, human; details: 10 μM
SF-268 = assay: NCI one-dose screening, CNS cancer SF-268; type: cell-based, human; details: 10 μM
SF-539 = assay: NCI one-dose screening, CNS cancer SF-539; type: cell-based, human; details: 10 μM
SNB-19 = assay: NCI one-dose screening, CNS cancer SNB-19; type: cell-based, human; details: 10 μM
SNB-75 = assay: NCI one-dose screening, CNS cancer SNB-75; type: cell-based, human; details: 10 μM
U251 = assay: NCI one-dose screening, CNS cancer U251; type: cell-based, human; details: 10 μM
LOX IMVI = assay: NCI one-dose screening, melanoma LOX IMVI; type: cell-based, human; details: 10 μM
MALME-3M = assay: NCI one-dose screening, melanoma MALME-3M; type: cell-based, human; details: 10 μM
M14 = assay: NCI one-dose screening, melanoma M14; type: cell-based, human; details: 10 μM
UACC-62 = assay: NCI one-dose screening, melanoma UACC-62; type: cell-based, human; details: 10 μM
UACC-257 = assay: NCI one-dose screening, melanoma UACC-257; type: cell-based, human; details: 10 μM
SK-MEL-2 = assay: NCI one-dose screening, melanoma SK-MEL-2; type: cell-based, human; details: 10 μM
SK-MEL-28 = assay: NCI one-dose screening, melanoma SK-MEL-28; type: cell-based, human; details: 10 μM
SK-MEL-5 = assay: NCI one-dose screening, melanoma SK-MEL-5; type: cell-based, human; details: 10 μM
IGROV1 = assay: NCI one-dose screening, ovarian cancer IGROV1; type: cell-based, human; details: 10 μM
OVCAR-3 = assay: NCI one-dose screening, ovarian cancer OVCAR-3; type: cell-based, human; details: 10 μM
OVCAR-5 = assay: NCI one-dose screening, ovarian cancer OVCAR-5; type: cell-based, human; details: 10 μM
OVCAR-8 = assay: NCI one-dose screening, ovarian cancer OVCAR-8; type: cell-based, human; details: 10 μM
SK-OV-3 = assay: NCI one-dose screening, ovarian cancer SK-OV-3; type: cell-based, human; details: 10 μM
786-O = assay: NCI one-dose screening, renal cancer 786-O; type: cell-based, human; details: 10 μM
[2] = NCI one-dose screening, renal cancer A489; type: cell-based, human; details: 10 μM
ACHN = assay: NCI one-dose screening, renal cancer ACHN; type: cell-based, human; details: 10 μM
SN12C = assay: NCI one-dose screening, renal cancer SN12C; type: cell-based, human; details: 10 μM
TK-10 = assay: NCI one-dose screening, renal cancer TK-10; type: cell-based, human; details: 10 μM
UO-31 = assay: NCI one-dose screening, renal cancer UO-31; type: cell-based, human; details: 10 μM
RXF, 393 = assay: NCI one-dose screening, renal cancer RXF, 393; type: cell-based, human; details: 10 μM
DU145 = assay: NCI one-dose screening, prostate cancer DU145; type: cell-based, human; details: 10 μM
PC-3 = assay: NCI one-dose screening, prostate cancer PC-3; type: cell-based, human; details: 10 μM
MCF7 = assay: NCI one-dose screening, breast cancer MCF7; type: cell-based, human; details: 10 μM
HS 578-T = assay: NCI one-dose screening, breast cancer HS 578-T; type: cell-based, human; details: 10 μM; Breast cancer
MDA-MB-231/ATCC = assay: NCI one-dose screening, breast cancer MDA-MB-231/ATCC; type: cell-based, human; details: 10 μM
MDA-MB-468 = assay: NCI one-dose screening, breast cancer MDA-MB-468; type: cell-based, human; details: 10 μM
NCl/ADR-RES = assay: NCI one-dose screening, breast cancer NCl/ADR-RES; type: cell-based, human; details: 10 μM; listed under Ovarian cancer
BT-549 = assay: NCI one-dose screening, breast cancer BT-549; type: cell-based, human; details: 10 μM
T-47D = assay: NCI one-dose screening, breast cancer T-47D; type: cell-based, human; details: 10 μM
MDA, -MB-435 = assay: NCI one-dose screening, breast cancer MDA, -MB-435; type: cell-based, human; details: 10 μM; listed under Melanoma
human tumor cell lines = assay: NCI one-dose screening, Mean / Delta / Range of growth percent over all tested cell lines; type: cell-based; details: 10 μM; for Growth Percent Delta: delta over all cell lines; for Growth Percent Mean: mean over all cell lines; for Growth Percent Range: range over all cell lines

## Cc1ccc(Sc2cc3c(c4nsnc24)C(=O)c2ccccc2C3=O)c(C)c1 [C25, 4-(2,4-dimethylphenylthio)anthra[2,1-c] [1,2,5]thiadiazol-6,11-dione]
[1]
  IC50: > 15 µM
HL-60, TB
  Growth Percent HL-60(TB): 99.93%
MOLT-4
  Growth Percent MOLT-4: 91.01%
SR
  Growth Percent SR: 70.26%
PRMI-8226 cell line
  Growth Percent RPMI-8226: 85.14%
K562cell line
  Growth Percent K562: 67.97%
EKVX
  Growth Percent EKVX: 108.79%
HOP-62
  Growth Percent HOP-62: 79.34%
HOP-92
  Growth Percent HOP-92: 97.83%
NCI-H226
  Growth Percent NCI-H226: 01.50%
NCI-H23
  Growth Percent NCI-H23: 89.40%
NCI-H460
  Growth Percent NCI-H460: 102.01%
NCI-H522
  Growth Percent NCI-H522: 96.81%
A549/ATCC
  Growth Percent A549/ATCC: 109.80%
COLO 205
  Growth Percent COLO 205: 106.63%
HCC-2998
  Growth Percent HCC-2998: 121.23%
HCT-116
  Growth Percent HCT-116: 94.55%
HCT-15
  Growth Percent HCT-15: 83.04%
KM12
  Growth Percent KM12: 96.42%
HT29
  Growth Percent HT29: 101.47%
SF-268
  Growth Percent SF-268: 90.61%
SF-539
  Growth Percent SF-539: 100.22%
SNB-19
  Growth Percent SNB-19: 102.33%
SNB-75
  Growth Percent SNB-75: 76.05%
U251
  Growth Percent U251: 104.99%
LOX IMVI
  Growth Percent LOX IMVI: 90.38%
MALME-3M
  Growth Percent MALME-3M: 108.23%
M14
  Growth Percent M14: 100.77%
UACC-62
  Growth Percent UACC-62: 94.50%
UACC-257
  Growth Percent UACC-257: 121.93%
SK-MEL-2
  Growth Percent SK-MEL-2: 98.52%
SK-MEL-28
  Growth Percent SK-MEL-28: 118.64%
SK-MEL-5
  Growth Percent SK-MEL-5: 109.99%
IGROV1
  Growth Percent IGROV1: 95.00%
OVCAR-3
  Growth Percent OVCAR-3: 105.38%
OVCAR-5
  Growth Percent OVCAR-5: 106.46%
OVCAR-8
  Growth Percent OVCAR-8: 104.59%
SK-OV-3
  Growth Percent SK-OV-3: 110.36%
786-O
  Growth Percent 786-0: 105.11%
[2]
  Growth Percent A498: 84.37%
ACHN
  Growth Percent ACHN: 94.24%
SN12C
  Growth Percent SN12C: 98.68%
TK-10
  Growth Percent TK-10: 127.11%
UO-31
  Growth Percent UO-31: 65.72%
RXF, 393
  Growth Percent RXF 393: 105.93%
DU145
  Growth Percent DU145: 109.69%
PC-3
  Growth Percent PC-3: 76.11%
MCF7
  Growth Percent MCF7: 79.77%
HS 578-T
  Growth Percent HS 578T: 99.06%
MDA-MB-231/ATCC
  Growth Percent MDA-MB-231/ATCC: 92.27%
MDA-MB-468
  Growth Percent MDA-MB-468: 100.45%
NCl/ADR-RES
  Growth Percent NCI/ADR-RES: 97.75%
BT-549
  Growth Percent BT-549: 94.55%
T-47D
  Growth Percent T-47D: 75.36%
MDA, -MB-435
  Growth Percent MDA-MB-435: 105.58%
Human tumor cell lines
  Growth Percent Delta: 31.54%
  Growth Percent Mean: 97.26%
  Growth Percent Range: 61.39%

## COc1cccc(Sc2cc3c(c4nsnc24)C(=O)c2ccccc2C3=O)c1 [C46, 4-(3-methoxy-phenyl-thio)anthra[2,1-c] [1,2,5]thiadiazol-6,11-dione]
[1]
  IC50: > 15 µM
HL-60, TB
  Growth Percent HL-60(TB): 84.53%
MOLT-4
  Growth Percent MOLT-4: 35.83%
SR
  Growth Percent SR: 36.14%
PRMI-8226 cell line
  Growth Percent RPMI-8226: 52.03%
K562cell line
  Growth Percent K562: 38.52%
EKVX
  Growth Percent EKVX: 104.94%
HOP-62
  Growth Percent HOP-62: 61.81%
HOP-92
  Growth Percent HOP-92: 100.52%
NCI-H226
  Growth Percent NCI-H226: 95.26%
NCI-H23
  Growth Percent NCI-H23: 76.42%
NCI-H460
  Growth Percent NCI-H460: 100.27%
NCI-H522
  Growth Percent NCI-H522: 82.41%
A549/ATCC
  Growth Percent A549/ATCC: 109.52%
COLO 205
  Growth Percent COLO 205: 109.57%
HCC-2998
  Growth Percent HCC-2998: 104.94%
HCT-116
  Growth Percent HCT-116: 85.66%
HCT-15
  Growth Percent HCT-15: 71.89%
KM12
  Growth Percent KM12: 97.06%
HT29
  Growth Percent HT29: 105.25%
SF-268
  Growth Percent SF-268: 89.75%
SF-539
  Growth Percent SF-539: 107.05%
SNB-19
  Growth Percent SNB-19: 105.92%
SNB-75
  Growth Percent SNB-75: 81.80%
U251
  Growth Percent U251: 100.67%
LOX IMVI
  Growth Percent LOX IMVI: 70.96%
MALME-3M
  Growth Percent MALME-3M: 113.06%
M14
  Growth Percent M14: 94.23%
UACC-62
  Growth Percent UACC-62: 87.72%
UACC-257
  Growth Percent UACC-257: 104/27
SK-MEL-2
  Growth Percent SK-MEL-2: 82.62%
SK-MEL-28
  Growth Percent SK-MEL-28: 101.77%
SK-MEL-5
  Growth Percent SK-MEL-5: 100.11%
IGROV1
  Growth Percent IGROV1: 99.91%
OVCAR-3
  Growth Percent OVCAR-3: 85.83%
OVCAR-5
  Growth Percent OVCAR-5: 122.58%
OVCAR-8
  Growth Percent OVCAR-8: 97.32%
SK-OV-3
  Growth Percent SK-OV-3: 110.30%
786-O
  Growth Percent 786-0: 102.97%
[2]
  Growth Percent A498: 83.74%
ACHN
  Growth Percent ACHN: 98.70%
SN12C
  Growth Percent SN12C: 95.93%
TK-10
  Growth Percent TK-10: 130.80%
UO-31
  Growth Percent UO-31: 75.49%
RXF, 393
  Growth Percent RXF 393: 124.15%
DU145
  Growth Percent DU145: 98.87%
PC-3
  Growth Percent PC-3: 75.99%
MCF7
  Growth Percent MCF7: 72.77%
HS 578-T
  Growth Percent HS 578T: 93.84%
MDA-MB-231/ATCC
  Growth Percent MDA-MB-231/ATCC: 87.08%
MDA-MB-468
  Growth Percent MDA-MB-468: 93.53%
NCl/ADR-RES
  Growth Percent NCI/ADR-RES: 92.67%
BT-549
  Growth Percent BT-549: 94.91%
T-47D
  Growth Percent T-47D: 69.09%
MDA, -MB-435
  Growth Percent MDA-MB-435: 72.50%
Human tumor cell lines
  Growth Percent Delta: 55.47%
  Growth Percent Mean: 91.30%
  Growth Percent Range: 94.97%
